According to patent publication US20200131473A1, “METHOD OF GENERATING 2 CELL-LIKE STEM CELLS” (IFOM FONDAZIONE ISTITUTO FIRC DI ONCOLOGIA MOLECOLARE, priority 2017, published 2020):
Entries after “also recorded” stand apart in the source; their conditions may differ.

Columns and labels:
Assay type in all cases: cell-based, mouse
[1] = system: ESC lines E14, R1 and MC1; assay: High-throughput transcriptional profiling (RNA sequencing) of ESC lines E14, R1 and MC1
Method: RNA samples were quantified using Qubit 2.0 Fluorometer (Life Technologies, Carlsbad, Calif., USA) and RNA integrity was checked with RNA Screen Tape on Agilent 2200 TapeStation (Agilent Technologies, Palo Alto, Calif., USA). […] RNA sequencing library preparation was prepared using Ribo-Zero rRNA Removal Kit and TruSeq Stranded Total RNA library Prep kit following manufacturer's protocol (Illumina, Cat # RS-122-2101). Briefly, rRNA was depleted with Ribo-Zero rRNA Removal Kit. rRNA depleted RNAs were fragmented for 8 minutes at 94° C. First strand and second strand cDNA were subsequently synthesized. The second strand of cDNA was marked by incorporating dUTP during the synthesis. cDNA fragments were adenylated at 3′ends, and indexed adapter was ligated to cDNA fragments. Limited cycle PCR was used for library enrichment. The incorporated dUTP in second strand cDNA quenched the amplification of second strand, which helped to preserve the strand specificity. Sequencing libraries were validated using DNA Analysis Screen Tape on the Agilent 2200 TapeStation (Agilent Technologies, Palo Alto, Calif., USA), and quantified by using Qubit 2.0 Fluorometer (Invitrogen, Carlsbad, Calif.) as well as by quantitative PCR (Applied Biosystems, Carlsbad, Calif., USA).
The sequencing libraries were multiplexed and clustered on 1 lane of flowcell. […] On average ˜29 million reads were generated for a sample and average insert size ranged between 204-231 for the samples.
Transcript and gene level quantification was done with Kallisto (version 0.43.0)^16. […] Additionally, all reads were mapped with the STAR spliced aligner (version 2.5.2b)^17 to the GRCm38 (mm10) genome after trimming the reads to 100 bp with Trimmomatic (version 0.36)^18. Repeat expression was quantified by counting fragments overlapping with the repeat annotation from the Choi et al. 2017 paper, with using FeatureCounts from the subread package (version 1.5.2)^19. […]
Read counts for each sample estimated by Kallisto were imported into the R statistical environment (version 3.2.2) using tximport (version 1.1.2)^20. […]

[2] = system: 2C-like genes (Zscan4, MuERV-L/MERVL, Dux) in ESCs (E14, R1); assay: qPCR for 2C-like specific genes in ESCs
Method: All treatments including APH, HU, UV, ATRi, ATMi and Chk1i were added in to fresh ESC medium and the cells were kept in 37° C. and 3% 02 tension for overnight (16-17 hrs) unless mentioned in each particular result section. APH was used at various concentrations ranging from 0.3 uM to 6 uM that is mentioned in each experiment in order to induce mild to acute replication stress response. Similarly, HU was used at 0.1 mM-3 mM. ATMi (KU-55933) and ATRi (VE 822) were used at the concentration of 10 uM and 1 uM respectively. Moreover, Chk1i (UCN-01) at the concentration of 100 nM was used. UV radiation was performed at the dosage ranging from 2 to 10 J/m2. For induction of ETAA1-AAD expression, Dox was used at the concentration of 1 μg/mL for 48 hrs.
RNA was extracted using RNeasy mini kit (QIAGEN), quantified by NanoDrop spectrophotometer and cDNA was prepared from 2 μg total DNA-depleted RNA using SuperScript™ III reverse transcriptase kit (Invitrogen cat #18080-093) following manufacturer's instructions. qPCR assay performed based on standard protocol using 10× SsoFast™ EvaGreen® Supermix or later 1× LightCycler 480 SYBR Green I Master (Roche, 04707516001), 0.5 μM primer mix and 5 ng of cDNA. GAPDH was used as internal control to normalise the qPCR data following ΔΔCt method, 10 μM primer mix and a total amount of cDNA corresponding to 5 ng of starting RNA for each reaction.

[3] = system: pZscan4-Emerald ESCs; assay: Cell cycle analysis of ESCs; conditions: APH 0.3 μM and 6 μM
Text: ESCs were fixed and permeabilized using Cytoperm/Cytofix kit (BD Biosciences), and subsequently stained for one hour at room temperature with Alexa Fluor® 647 anti-H2AX-Phosphorylated (Ser139) antibody (Biolegend) or P-CHK1-PE conjugated antibody (cell signaling 12268). Cells were washed and acquired on a FACS Calibur instrument or Attune NxT (Thermo Fisher Scientific). For Emerald-GFP acquisition, cells were trypsinized, collected and subsequently acquired without fixation. Cell cycle profiles were acquired after incubation with DAPI (4′,6-diamidino-2-phenylindole) overnight. For Caspase3 FACS analysis after fixation and permeabilization, Cleaved Caspase3 antibody were used for one hr at RT followed by washes and one hr incubation in donkey anti rabbit secondary antibody. […]

SMILES: CNCc1ccc(-c2cc(-c3nc(-c4ccc(S(=O)(=O)C(C)C)cc4)cnc3N)on2)cc1 [VE 822]
- genes shared between APH and DUX-induced condition rescued ([1]; APH plus ATRi): 71%

SMILES: C[C@@]1(CO)[C@H](O)CC[C@@]2(C)[C@H]1CC[C@H]1C[C@@H]3C[C@@]12CC[C@]3(O)CO [APH, aphidicolin]
- expression of key 2C-like genes in DUX KO ESCs ([2]; APH treatment): could not induce
- main 2C-like genes, qPCR validation of profiling ([2]; APH treatment): significant upregulation
- expression of 2C-like genes in ATR Seckel ESCs ([2]; APH treatment, unlike normal wild type ESC): milder increase; also recorded: mild increase
- expression of Zscan4 and MuERV-L (QPCR and FACS) ([2]; ESC lines E14 and R1, time and dosage-dependent): significantly upregulated
- downregulated genes ([1]; APH treatment, FDR<0.05): 640 genes
- upregulated genes with more than two-fold change ([1]; APH treatment, FDR<0.05): 3074 genes
- G2/M population in culture [3]: neither at low (0.3 μM) nor at high (6 μM) concentrations could increase G2/M population
